In ChEMBL document CHEMBL5034037, “Synthesis, Characterization, and Preclinical Evaluation of a Small-Molecule Prostate-Specific Membrane Antigen-Targeted Monomethyl Auristatin E Conjugate” (J Med Chem, 2021):
*1 amine or outer side, *2 acyl side, *3 side chain or, on linkers, in order; H or OH if unused. Where a SMILES comes first, the peptide text is derived from it. [ ]: non-standard residue; d: D form. The star is where a group is joined. GluureaLys(ε-3-ClBenzyl) = O=C(O)CC[C@H](NC(=O)N[C@@H](CCCCN(Cc1cccc(Cl)c1)*)C(=O)O)C(=O)O; Dolaproine = CO[C@@H]([C@@H]1CCCN1)[C@@H](C)C(=O)O; Dil = CC[C@H](C)[C@H](NC)[C@@H](CC(=O)O)OC; X1 = O=C(CCCc1cn(CCCN[*:1])nn1)[*:2]; PABC = O=C(OCc1ccc(N[*:1])cc1)[*:2]; X2 = C[C@@H](N*)[C@@H](O)c1ccccc1; Cit = NC(=O)NCCC[C@H](N)C(=O)O; Suc = O=C(CCC(=O)[*:2])[*:1]; NMeV = CN[C@H](C(=O)O)C(C)C; Ahx = NCCCCCC(=O)O

Key:
Salmonella typhimurium [1] = assay: Mutagenecity in Salmonella typhimurium TA97 without metabolic activation system at 1 ug/ml by Ames test; format: toxicity, organism-based; conditions: salmonella enterica subsp. enterica serovar typhimurium; dose 1 µg/ml
[2] = Toxicity in rabbit assessed as morphological changes in loops of colon at 81 to 122 microg/kg, iv; format: tissue-based, Oryctolagus cuniculus; conditions: in vivo, dose 81-122 µg/kg
Salmonella typhimurium [3] = assay: Mutagenecity in Salmonella typhimurium TA100 without metabolic activation system at 10000 ug/ml by Ames test; format: toxicity, organism-based; conditions: salmonella enterica subsp. enterica serovar typhimurium; dose 10000 µg/ml
[4] = Toxicity in rabbit assessed as morphological changes in abdominal cavity at 81 to 122 microg/kg, iv; parameters: species or system Oryctolagus cuniculus; conditions: in vivo, dose 81-122 µg/kg
[5] = Toxicity in rat assessed as morphological changes in heart muscle at 150 to 225 microg/kg, iv; format: tissue-based; conditions: in vivo, dose 150-225 µg/kg
[6] = Toxicity in rabbit assessed as morphological changes in brain gyrus at 81 to 122 microg/kg, iv; format: tissue-based, Oryctolagus cuniculus; conditions: in vivo, dose 81-122 µg/kg
[7] = Toxicity in rabbit assessed as morphological changes in heart at 81 to 122 microg/kg, iv; format: tissue-based, Oryctolagus cuniculus; conditions: in vivo, dose 81-122 µg/kg
[8] = Antitumor activity against human 22Rv1 cells xenografted in mouse assessed as tumour growth inhibition at 0.3 mg/kg, ip daily treated for 5 days after 18 days of tumor implantation measured upto 15 days; format: functional, CWR22R; conditions: 22Rv1, ip, 120 h, time 5 day, read-out: TGI
Cytochrome P450 2C8 = biological target: T1, Cytochrome P450 2C8 (Homo sapiens, UniProt P10632); assay: Inhibition of CYP2C8 in human liver microsome using paclitaxel as substrate; format: ADME, microsomes
T1 sequence (P10632 whole entry): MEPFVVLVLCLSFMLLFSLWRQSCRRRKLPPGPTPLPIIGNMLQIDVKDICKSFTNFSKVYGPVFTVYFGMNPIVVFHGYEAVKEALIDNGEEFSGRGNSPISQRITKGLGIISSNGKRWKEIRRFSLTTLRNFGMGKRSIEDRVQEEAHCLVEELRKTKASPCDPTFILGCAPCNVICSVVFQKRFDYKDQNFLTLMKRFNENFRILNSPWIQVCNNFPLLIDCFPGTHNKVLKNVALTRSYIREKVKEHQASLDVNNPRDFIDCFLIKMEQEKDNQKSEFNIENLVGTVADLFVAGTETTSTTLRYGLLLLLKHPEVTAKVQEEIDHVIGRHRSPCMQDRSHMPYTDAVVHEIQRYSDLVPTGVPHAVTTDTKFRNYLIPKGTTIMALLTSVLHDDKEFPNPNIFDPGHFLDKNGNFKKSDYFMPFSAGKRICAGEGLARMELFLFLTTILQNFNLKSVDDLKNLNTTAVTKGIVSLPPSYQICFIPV

[9] = Toxicity in rabbit morphological change in tongue at 81 to 122 microg/kg, iv; format: tissue-based, Oryctolagus cuniculus; conditions: in vivo, dose 81-122 µg/kg
Salmonella typhimurium [10] = assay: Mutagenecity in Salmonella typhimurium TA100 in presence of metabolic activation system at 10 ug/ml by Ames test; format: toxicity, organism-based; conditions: salmonella enterica subsp. enterica serovar typhimurium; dose 10 µg/ml
[11] = Toxicity in rabbit assessed as morphological changes in thymus at 81 to 122 microg/kg, iv; format: tissue-based, Oryctolagus cuniculus; conditions: in vivo, dose 81-122 µg/kg

In the case of `CC[C@H](C)[C@@H]([C@@H](CC(=O)N1CCC[C@H]1[C@H](OC)[C@@H](C)C(=O)N[C@H](C)[C@@H](O)c1ccccc1)OC)N(C)C(=O)[C@@H](NC(=O)[C@H](C(C)C)N(C)C(=O)OCc1ccc(NC(=O)[C@H](CCCNC(N)=O)NC(=O)[C@@H](NC(=O)CCCc2cn(CCCNC(=O)[C@H](Cc3ccc(O)cc3)NC(=O)[C@H](Cc3ccccc3)NC(=O)CCC(=O)NCCCCCC(=O)N(CCCC[C@H](NC(=O)N[C@@H](CCC(=O)O)C(=O)O)C(=O)O)Cc3cccc(Cl)c3)nn2)C(C)C)cc1)C(C)C` ({GluureaLys(ε-3-ClBenzyl)-Ahx-Suc}-FY[X1]V[Cit][PABC][NMeV]V[Dil][Dolaproine]-X2), the Activity (Salmonella typhimurium [1]) is reported as “Non-Toxic”, the Activity [2] is reported as “Non-Toxic” and the Activity (Salmonella typhimurium [3]) is reported as “Non-Toxic”. The Activity [4] was “Non-Toxic”, the Activity [5] was “Non-Toxic” and the Activity [6] was “Non-Toxic”. For the same molecule, the Activity [7] was “Non-Toxic”, the inhibition in vivo at 0.3 mg/kg [8] was 77.4% and the IC50 (Cytochrome P450 2C8) was greater than 25 µM. The Activity [9] was “Non-Toxic”, the Activity (Salmonella typhimurium [10]) was “Non-Toxic” and the Activity [11] was “Non-Toxic”.
